From patent publication US12540131B2 (Merck Sharp & Dohme LLC, priority 2019, dated 2026) come the findings set out here.

GST tagged truncated human mutant G2019S LRRK2, sequence (Q5S007 970-2527 G2019S): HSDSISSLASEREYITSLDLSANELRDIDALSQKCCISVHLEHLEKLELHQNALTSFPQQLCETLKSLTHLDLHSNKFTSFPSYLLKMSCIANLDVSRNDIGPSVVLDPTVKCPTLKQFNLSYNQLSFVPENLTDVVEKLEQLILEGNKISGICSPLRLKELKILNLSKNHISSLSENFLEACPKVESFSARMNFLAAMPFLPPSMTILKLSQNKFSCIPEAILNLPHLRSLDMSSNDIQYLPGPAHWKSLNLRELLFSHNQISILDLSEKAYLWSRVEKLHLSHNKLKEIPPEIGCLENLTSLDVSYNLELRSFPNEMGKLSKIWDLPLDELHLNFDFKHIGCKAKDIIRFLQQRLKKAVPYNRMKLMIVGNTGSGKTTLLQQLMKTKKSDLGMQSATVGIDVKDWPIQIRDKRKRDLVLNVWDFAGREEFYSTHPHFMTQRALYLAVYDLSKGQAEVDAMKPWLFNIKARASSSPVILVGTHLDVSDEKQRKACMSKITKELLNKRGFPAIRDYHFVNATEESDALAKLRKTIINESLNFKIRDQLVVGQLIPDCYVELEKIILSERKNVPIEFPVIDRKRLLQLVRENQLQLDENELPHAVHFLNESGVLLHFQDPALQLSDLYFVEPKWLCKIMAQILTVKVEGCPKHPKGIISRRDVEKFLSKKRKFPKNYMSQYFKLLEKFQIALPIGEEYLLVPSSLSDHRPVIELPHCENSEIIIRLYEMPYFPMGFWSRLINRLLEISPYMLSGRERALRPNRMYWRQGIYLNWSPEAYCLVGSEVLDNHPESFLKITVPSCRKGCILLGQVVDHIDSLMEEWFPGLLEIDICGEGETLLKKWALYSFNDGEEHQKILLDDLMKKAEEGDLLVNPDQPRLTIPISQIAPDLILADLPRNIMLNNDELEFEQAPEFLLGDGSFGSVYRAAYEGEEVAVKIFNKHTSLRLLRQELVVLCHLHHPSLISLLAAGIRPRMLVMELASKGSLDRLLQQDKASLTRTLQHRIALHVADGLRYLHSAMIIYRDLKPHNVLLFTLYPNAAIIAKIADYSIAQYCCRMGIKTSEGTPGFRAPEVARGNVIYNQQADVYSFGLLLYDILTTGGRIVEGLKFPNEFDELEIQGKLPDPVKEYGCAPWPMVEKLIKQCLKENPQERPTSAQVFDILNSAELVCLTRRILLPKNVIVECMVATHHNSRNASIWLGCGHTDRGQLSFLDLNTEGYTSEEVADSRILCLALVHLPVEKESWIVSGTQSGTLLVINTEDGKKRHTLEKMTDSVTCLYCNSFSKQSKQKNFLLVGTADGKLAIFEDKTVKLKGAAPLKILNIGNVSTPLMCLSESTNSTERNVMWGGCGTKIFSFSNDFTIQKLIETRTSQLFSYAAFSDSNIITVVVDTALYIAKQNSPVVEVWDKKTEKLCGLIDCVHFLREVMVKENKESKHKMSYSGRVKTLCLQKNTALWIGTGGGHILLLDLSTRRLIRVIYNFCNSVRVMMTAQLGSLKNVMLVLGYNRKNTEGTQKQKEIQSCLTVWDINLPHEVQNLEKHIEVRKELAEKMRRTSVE

The target of the assay is GST tagged truncated human mutant G2019S LRRK2 (Homo sapiens (Human), UniProt Q5S007, G2019S). As to the kind of experiment: LRRK2 Km ATP LanthaScreen Assay. The assay is classed as biochemical. To be noted: G2019S LRRK2, 134 μM ATP (Km ATP), mean values. Summed up:
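Enzyme (GST-tagged, truncated) was preincubated with compound for 15 min at RT in 50 mM Tris pH 8.5, 10 mM MgCl2, 0.01% Brij-35, 1 mM EGTA, 2 mM DTT and 0.05 mM orthovanadate. Fluorescein-LRRKtide and 134 μM ATP (Km) were then added for 90 min. EDTA and Tb-anti-pERM antibody stopped the reaction; the TR-FRET 520/495 ratio gave 4-parameter IC50s, reported as mean pIC50.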
Background: Time-resolved FRET reads energy transfer from a long-lived donor to a nearby acceptor.
Turning to `Cc1cc2cnc(Nc3cnn(C4CC4)c3C)nc2cc1C1CCN([C@@]2(C)COC[C@H]2O)CC1` (single isomer, unassigned) [Ex-2.38, (3S,4S) or (3R,4R) 4-(4-{2-[(1-cyclopropyl-5-methyl-1H-pyrazol-4-yl)amino]-6-methylquinazolin-7-yl}piperidin-1-yl)-4-methyloxolan-3-ol], the “LRRK2 pIC50” value is reported as more than 9.20.
As for `Cn1ncc(Nc2ncc3cc(Cl)c(C4CCN([C@]5(C)COC[C@@H]5O)CC4)cc3n2)c1C(F)(F)F` (single isomer, unassigned) [Ex-2.90, (3S,4S) or (3R,4R) 4-(4-(6-chloro-2-((1-methyl-5-(trifluoromethyl)-1H-pyrazol-4-yl)amino)quinazolin-7-yl)piperidin-1-yl)-4-methyltetrahydrofuran-3-olyl)piperidin-1-yl]-4-methyloxolan-3-ol], the “LRRK2 pIC50” value is on record as more than 9.20.
With `F[C@H]1CN(C2COC2)CC[C@@H]1c1cc2nc(Nc3cnn(C4CC4(F)F)c3Cl)ncc2cc1Cl` (single isomer, unassigned) [Ex-8.30, (R)(3S,4S) or (S)(3S,4S) or (R)(3R,4R) or (S)(3R,4R) 6-chloro-N-[5-chloro-1-(2,2-difluorocyclopropyl)-1H-pyrazol-4-yl]-7-[3-fluoro-1-(oxetan-3-yl)piperidin-4-yl]quinazolin-2-amine] the figure was 8.96.
As to `N#CC1CCC(N2CC[C@@H](c3cc4nc(Nc5cnn(C6CC6)c5Cl)ncc4cc3Cl)[C@H](F)C2)C1` (single isomer, unassigned) [Ex-4.109, (1R,3S)-3-((3S,4S) or (1S,3R)-3-((3S,4S) or (1R,3R)-3-((3S,4S) or (1S,3S)-3-((3S,4S) or (1R,3S)-3-((3R,4R) or (1S,3R)-3-((3R,4R) or (1R,3R)-3-((3R,4R) or 1S,3S)-3-((3R,4R) 4-(6-chloro-2-((5-chloro-1-cyclopropyl-1H-pyrazol-4-yl)amino)quinazolin-7-yl)-3-fluoropiperidin-1-yl)cyclopentane-1-carbonitrile], the “LRRK2 pIC50” value is 7.99.
For `CC1OCC1N1CC[C@@H](c2cc3nc(Nc4cnn(CC(C)(C)O)c4Cl)ncc3cc2Cl)[C@H](F)C1` (single isomer, unassigned) [Ex-4.71, (3S,4S)(2R,3R) or (3S,4S)(2S,3S) or (3R,4R)(2R,3R) or (3R,4R)(2S,3S) or (3R,4R)(2S,3R) or (3R,4R)(2R,3S) or (3S,4S)(2S,3R) or (3S,4S)(2R,3S) 1-[5-chloro-4-({6-chloro-7-[3-fluoro-1-(2-methyloxetan-3-yl)piperidin-4-yl]quinazolin-2-yl}amino)-1H-pyrazol-1-yl]-2-methylpropan-2-ol], the “LRRK2 pIC50” value was found to be 7.74.
With `CO[C@@H]1COC[C@@H]1N1CC[C@@H](c2cc3nc(Nc4cnn(C5CC5(F)F)c4Cl)ncc3cc2C)[C@H](F)C1` (single isomer, unassigned) [Ex-4.246, (R)(3S,4S)(3S,4S) or (R)(3S,4S)(3R,4R) or (R)(3R,4R)(3S,4S) or (R)(3R,4R)(3R,4R) or (S)(3S,4S)(3S,4S) or (S)(3S,4S)(3R,4R) or (S)(3R,4R)(3S,4S) or (S)(3R,4R)(3R,4R) N-[5-chloro-1-(2,2-difluorocyclopropyl)-1H-pyrazol-4-yl]-7-[3-fluoro-1-(4-methoxyoxolan-3-yl)piperidin-4-yl]-6-methylquinazolin-2-amine] the figure was 8.22.
For `Cn1ncc(Nc2ncc3cc(Cl)c([C@@H]4CCN([C@@]5(C)COC[C@H]5O)C[C@H]4F)cc3n2)c1C(F)(F)F` (single isomer, unassigned) [Ex-4.253, (3S,4S)(3S,4S) or (3S,4S)(3R,4R) or (3R,4R)(3S,4S) or (3R,4R)(3R,4R) 4-[4-(6-chloro-2-{[1-methyl-5-(trifluoromethyl)-1H-pyrazol-4-yl]amino}quinazolin-7-yl)-3-fluoropiperidin-1-yl]-4-methyloxolan-3-ol], the “LRRK2 pIC50” value was more than 9.20.
For `CN1CCC(c2cc3nc(Nc4cnn(CC(C)(C)O)c4Cl)ncc3cc2Cl)CC1` [Ex-4.72, 1-(5-chloro-4-{[6-chloro-7-(1-methylpiperidin-4-yl)quinazolin-2-yl]amino}-1H-pyrazol-1-yl)-2-methylpropan-2-ol], the “LRRK2 pIC50” value amounted to 8.92.
As for `N#CC1COCC1N1CCC(c2cc3nc(Nc4cnn(C5CC5)c4Cl)ncc3cc2Cl)CC1` (single isomer, unassigned) [Ex-4.102, (3S,4S) or (3R,4R) or (3S,4R) or (3R,4S) 4-(4-(6-chloro-2-((5-chloro-1-cyclopropyl-1H-pyrazol-4-yl)amino)quinazolin-7-yl)piperidin-1-yl)tetrahydrofuran-3-carbonitrile], the “LRRK2 pIC50” value is given as more than 9.20.
With `CN1CC[C@@H](c2cc3nc(Nc4cnn(CC(C)(C)O)c4Cl)ncc3cc2Cl)[C@H](F)C1` (single isomer, unassigned) [Ex-4.22, (3S,4S) or (3R,4R) 1-(5-chloro-4-{[6-chloro-7-(3-fluoro-1-methylpiperidin-4-yl)quinazolin-2-yl]amino}-1H-pyrazol-1-yl)-2-methylpropan-2-ol], the “LRRK2 pIC50” value is more than 9.20.
`Cc1c(Nc2ncc3cc(Cl)c([C@@H]4CCN(C5COC[C@H]5O)C[C@H]4F)cc3n2)cnn1C1CC1` (single isomer, unassigned) [Ex-4.128, (3S,4S)(3S,4S) or (3S,4S)(3R,4R) or (3R,4R)(3S,4S) or (3R,4R)(3R,4R) 4-[4-{6-chloro-2-[(1-cyclopropyl-5-methyl-1H-pyrazol-4-yl)amino]quinazolin-7-yl}-3-fluoropiperidin-1-yl]oxolan-3-ol]: the “LRRK2 pIC50” value was 8.99.
Take `C[C@@]1(N2CCC(c3cc4nc(Nc5ccnn5C5CC5)ncc4cc3Cl)CC2)COC[C@@H]1O` (single isomer, unassigned) [Ex-2.85, (3S,4S) or (3R,4R) 4-(4-{6-chloro-2-[(1-cyclopropyl-1H-pyrazol-5-yl)amino]quinazolin-7-yl}piperidin-1-yl)-4-methyloxolan-3-ol]: the “LRRK2 pIC50” value came out at 9.03.
Regarding `Cc1c(Nc2ncc3cc(Cl)c([C@@H]4CCN(C5COC5)C[C@H]4F)cc3n2)cnn1CC(C)(C)O` (single isomer, unassigned) [Ex-4.63, (3S,4S) or (3R,4R) 1-[4-({6-chloro-7-[3-fluoro-1-(oxetan-3-yl)piperidin-4-yl]quinazolin-2-yl}amino)-5-methyl-1H-pyrazol-1-yl]-2-methylpropan-2-ol], the “LRRK2 pIC50” value came to 8.83.
In the case of `[2H]C([2H])([2H])n1nc(C)cc1Nc1ncc2cc(Cl)c(C3CCN([C@H]4COC[C@H]4O)CC3)cc2n1` (single isomer, unassigned) [Ex-2.69, (3S,4S) or (3R,4R) 4-(4-(6-chloro-2-((3-methyl-1-(methyl-d3)-1H-pyrazol-5-yl)amino)quinazolin-7-yl)piperidin-1-yl)tetrahydrofuran-3-ol], the “LRRK2 pIC50” value came to 8.21.
For the compound `CC1(n2ncc(Nc3ncc4cc(Cl)c(C5CCN(C6COC6)CC5)cc4n3)c2Cl)CC1` [Ex-4.56, 6-chloro-N-[5-chloro-1-(1-methylcyclopropyl)-1H-pyrazol-4-yl]-7-[1-(oxetan-3-yl)piperidin-4-yl]quinazolin-2-amine], the “LRRK2 pIC50” value is given as more than 9.20.
